Data published in patent US6335168B1 (priority 1998, dated 2002).

Tested on: A118G variant human mu opioid receptor
Format: cell-based
Conditions: GIRK activation in oocytes

β-endorphin was tested, and the “difference of EC50 values between the A118G variant and the most common mu opioid receptors” value was “about three”.
